Data reported in patent US10213428B2, “(4-((3R,4R)-3-methoxytetrahydro-pyran-4-ylamino)piperidin-1-yl)(5-methyl-6-(((2R,6S)-6-(p-tolyl)tetrahydro-2H-pyran-2-yl)methylamino)pyrimidin-4-yl)methanone citrate” (Centrexion Therapeutics Corporation, priority 2015, dated 2019).

Columns and labels:
[1] = Oral pharmacokinetics in mouse; format: in vivo, BALB/c mice; settings: oral dose 20 μmol/kg
Source text: (§1) The pharmacokinetics of the test compound following single intravenous (IV) or oral (PO) doses were examined in • female BALB/c mice (average weight: 25 g) • male Wistar(Han) rats (average weight: 260 g) • male and female Göttingen Minipigs (average weight: 24 kg) • male beagle dogs (average weight: 15 kg) All non-rodent species were fasted overnight prior to dosing, while mice and rats had food and water available ad libitum. The p.o. dose of the compound was usually administered as suspension in 0.5% Natrosol or as a 0.5% Natrosol/0.015% Tween 80 suspension. For i.v. dosing purposes, the doses were applied as a solution in 0.9% NaCL, or as a solution containing 9.1% HP-beta Cyclodextrin in water.
(§2) Blood was collected by venous sampling and soaking of the blood in EDTA coated tubes. Samples were collected for up to 48 h after administration of the test compound. Plasma was then separated by centrifugation (5 min by approximately 9000 g at 4° C.). For determination of the test compound, plasma was transferred into PCR plates. All samples were stored at approximately −20° C. until bioanalytics. The test compound concentrations in plasma were determined by HPLC MS/MS. The lower limit of quantification was between 0.5 nmol/L and 1 nmol/L.

[2] = In vitro plasma protein binding (equilibrium dialysis), dog; format: in vitro ADME; settings: pH 7.4, dialysis 2 hours at 37° C., read-out: Fraction bound (converted)
Method: Dianorm Teflon dialysis cells (micro 0.2) are used. Each cell consists of a donor (i.e., buffer chamber) and an acceptor chamber (i.e., plasma chamber), separated by an ultrathin semipermeable membrane with a 5 kDa molecular weight cutoff. Stock solutions for each test compound are prepared in DMSO at 1 mM and diluted to a final concentration of 1.0 μM. Aliquots of 200 μL dialysis buffer (100 mM potassium phosphate, pH 7.4) are dispensed into the buffer chamber. Aliquots of 200 μL test compound dialysis solution are dispensed into the plasma chambers. Incubation is carried out for 2 hours under rotation at 37° C. Then, the dialysate is transferred into reaction tubes. The tubes for the buffer fraction contain 0.2 mL acetonitril/water (80/20 volume/volume). Aliquots of 25 μL of the plasma dialysate are transferred into deep well plates and mixed with 25 μL acetonitril/water (80/20 volume/volume), 25 μL buffer, 25 μL calibration solution and 25 μL Internal Standard solution. Protein precipitation is done by adding 200 μL acetonitrile. Aliquots of 50 μL of the buffer dialysate are transferred into deep well plates and mixed with 25 μL blank plasma, 25 μL Internal Standard solution and 200 μL acetonitril. Percent bound is calculated with the formula: % bound=(plasma concentration−buffer concentration/plasma concentration)×100.

[3] = Intravenous pharmacokinetics in rat; format: in vivo, Wistar(Han) rats; settings: IV dose 5 μmol/kg, mean values
Source text: as §1, §2

[4] = system: hepatocytes; assay: In vitro metabolic stability in hepatocyte incubations, rat; format: in vitro ADME; settings: Rat hepatocytes, 1 μM
Method: (§3) Metabolic degradation of the test compound is assayed in a hepatocyte suspension. Hepatocytes are incubated in an appropriate buffer system. Following a (typically) 30 min preincubation in an incubator (37° C., 10% CO2) 5 μL of test compound solution (1 μM) are added into 395 μL hepatocyte suspension (cell density in the range 0.25-5 Mio cells/mL, typically 1 Mio cells/mL, final DMSO concentration 0.05%). The cells are incubated for six hours (incubator, orbital shaker) and samples (25 μL) are taken at 0, 0.5, 1, 2, 4 and 6 hours. Samples are transferred into acetonitrile and pelleted by centrifugation (5 min). The supernatant is transferred to a new 96-deepwell plate, evaporated under nitrogen and resuspended. Decline of parent compound is analyzed by HPLC-MS/MS. CLint is calculated as follows CL_INTRINSIC=Dose/AUC=(CO/CD)/(AUD+clast/k)×1000/60. […]

[5] = as above; format: in vitro ADME; settings: hepatocytes (suspension); Rat; predicted from hepatocyte CL intrinsic, well stirred model; read-out: CL, in vivo
Method: as §3

[6] = female, BALB/c, plasma, 20 umol/kg, mean values
[7] = male, Wistar(Han), plasma, 5 umol/kg

## CO[C@H]1COCC[C@H]1NC1CCN(C(=O)c2ncnc(NC[C@H]3CCC[C@@H](c4ccc(C)cc4)O3)c2C)CC1 [compound I, (4-((3R,4R)-3-methoxytetrahydro-pyran-4-ylamino)piperidin-1-yl)(5-methyl-6-(((2R,6S)-6-(p-tolyl)tetrahydro-2H-pyran-2-yl)methylamino)pyrimidin-4-yl)methanone]
[1]; [6]
  AUC(0-inf): 3.16 µM·h
  Cmax: 974 nM
  Tmax: 1 h
[1]; mean values
  MRTtot: 3.99 h
[1]; oral bioavailability
  F: 79%
[2]
  fraction unbound at 2 h, 1 μM: 0.296
[3]
  MRTdisp: 1.49 h
[3]; [7]
  AUC(0-inf): 1.49 µM·h
  clearance: 56.1 mL/min/kg
[3]; male, Wistar(Han), plasma, 5 umol/kg, read-out: Vss
  Vd: 5.04 L/kg
[4]
  CL intrinsic, in vitro: 8.77 μL/min/10e6 cells
[5]
  CLhep predicted at 1 μM: 26 mL/min/kg
